How the values were obtained:
[1] = tested on: Hs746T ABT-700R xenografts; experiment: ABT-700-refractory xenograft efficacy; type: in vivo, mice; details: Hs746T ABT-700R xenografts; FIG. 12B
SNU-5 = experiment: Cytotoxicity assay (CellTiter-Glo, 6 days); type: cell-based, human; details: MET-amplified SNU-5 gastric cancer cells; FIG. 4
Protocol: (§1) Tumor cells were plated at 2000-5000 cells/well in 180 μL growth medium containing 10% FBS in 96-well plates, and cultured at 37° C. in a humidified incubator with 5% C02. The following day, titrations of antibodies or ADCs in 20 μL were added and cells were incubated for 6 days. Cell viability was determined using a CellTiter-Glo Luminescent Cell Viability Assay (Promega) according to the manufacturer's instructions. A non-binding, irrelevant negative control ADC conjugated to MMAE was also included in all assays to confirm that cell killing was antigen dependent.

NCI-H820 = experiment: Cytotoxicity assay (CellTiter-Glo, 6 days); type: cell-based, human; details: NCI-H820, without MET amplification; FIG. 4C
Protocol: as §1, with “instructions.” for “instructions. A non-binding, irrelevant negative control ADC conjugated to MMAE was also included in all assays to confirm that cell killing was antigen dependent.”
as §1, with “of” for “of antibodies or”, “instructions.” for “instructions. A non-binding, irrelevant negative control ADC conjugated to MMAE was also included in all assays to confirm that cell killing was antigen dependent.”

[2] = tested on: Hs746T gastric cancer xenografts; experiment: Hs746T xenograft efficacy; details: parental Hs746T xenografts, initial treatment; FIG. 12A
Protocol: Female SCID, SCID-Beige and nude mice were obtained from Charles River (Wilmington, Mass.) and housed at ten mice per cage. The body weight upon arrival was 20-22 g. Food and water were available ad libitum. Mice were acclimated to the animal facilities for a period of at least one week prior to commencement of experiments. Animals were tested in the light phase of a 12-hr light: 12-hr dark schedule (lights on at 06:00 hours).
Each experimental group included 8-10 animals.
Tumor volumes are depicted as mean±S.E.M.

NCI-H441 = experiment: Cytotoxicity assay (CellTiter-Glo, 6 days); type: cell-based, human; details: NCI-H441, without MET amplification; FIG. 4D
Protocol: as §1
as §1, with “of” for “of antibodies or”, “antigen-dependent.” for “antigen dependent.”

Hs746T = experiment: Cytotoxicity assay (CellTiter-Glo, 6 days); type: cell-based, human; details: MET-amplified Hs746T gastric cancer cells; FIG. 4
Protocol: as §1
as §1, with “of” for “of antibodies or”, “antigen-dependent.” for “antigen dependent.”

[3] = patients; cited from earlier work

Substance: ABT-700: humanized recombinant IgG1 kappa anti-cMet antibody, humanized version of mouse monoclonal antibody 224G11
- tumor response [1]: refractory to ABT-700 treatment with quick tumor outgrowth on therapy
- inhibition of proliferation (SNU-5): inhibited proliferation of cells with MET amplification
- inhibition of proliferation (NCI-H820): not cell lines without MET amplification
- tumor response [2]: tumor stasis followed by relapse
- inhibition of proliferation (NCI-H441): not cell lines without MET amplification
- inhibition of proliferation (Hs746T): inhibited proliferation of cells with MET amplification

Substance: DCDT2980S: an MMAE ADC targeting CD22
- dose not tolerated [3]: 3.2 mg/kg
- dose tolerated [3]: 2.4 mg/kg

Substance: brentuximab vedotin: Seattle Genetics MMAE ADC with an approximate DAR of 4
- dose not tolerated [3]: 2.7 mg/kg

— US10383948B2, “Anti-cMet antibody drug conjugates and methods for their use” (AbbVie Inc., priority 2016, dated 2019)
